Assay results: patent US11660303B2, “2-phenylimidazo[4,5-b]pyridin-7-amine derivates useful as inhibitors of mammalian tyrosine kinase ROR1 activity” (KANCERA AB, priority 2016, dated 2023)

How the values were obtained:
PBMC from CLL patients = test: CellTiter-Blue Cell Viability Assay, PBMC from CLL patients; format: cell-based; details: Homo sapiens, cell toxicity, culture 24, 48 and 72 h (time of the values not stated)
Method: (§1) The CellTiter-Blue® Cell Viability Assay provides a homogeneous, fluorometric method for estimating the number of viable cells present in multi-well plates. The assay uses the indicator dye resazurin to measure the metabolic capacity of cells. Viable cells retain the ability to reduce resazurin into resorufin, which is highly fluorescent.
(§2) Stock solutions (10 or 100 mM in DMSO) of compounds were serially diluted 1:2 in 11 concentrations and 25 nL/well (100 mM stock) or 50 nL/well (10 mM stock) were acoustically dispensed in assay plates with an EDC acoustic dispenser. Final starting concentration in the assay was 20 μM (0.2% DMSO) or 100 μM (0.1% DMSO) for test compounds.
(§3) Peripheral blood mononuclear cells (PBMC) from CLL patients or healthy volunteers were seeded in assay plates (384-well black/clear, Greiner #781091) pre-dispensed with compounds, 25 μL/well, and cultured for 24, 48 and 72 h. The cell concentration was 50 000 cells/well for PBMC from CLL patients or healthy volunteers. After 24, 48 and 72 h culture, Celltiter Blue reagent was added (5 μL/well) and the plates were incubated for 2 h. The plates were read in an Envision fluorescence reader (PerkinElmer) with Ex544 nm/Em590 nm. Results were calculated as % cytotoxicity compared to background (cells treated with 0.2% DMSO).
(§4) Thus, IC50 values for cell toxicity in PBMC from CLL patients as well as healthy volunteers for some compounds of the invention are shown in Table 3 as measured by the CellTiter-Blue® Cell Viability Assay.

[1] = system: PBMC from healthy volunteers; test: CellTiter-Blue Cell Viability Assay, PBMC from healthy volunteers; format: cell-based; details: Homo sapiens, cell toxicity, culture 24, 48 and 72 h (time of the values not stated)
Method: as §1, §2, §3, §4

Compound	IC50 (PBMC from CLL patients)	IC50 [1]
CN1CCC(Nc2c(Cl)cnc3[nH]c(-c4ccc(N5CCN(C)CC5)cc4)nc23)CC1 [Example 2, 6-Chloro-2-[4-(4-methylpiperazin-1-yl)phenyl]-N-(1-methylpiperidin-4-yl)-3H-imidazo[4,5-b]pyridin-7-amine]	160 nM	> 20000 nM
CCN1CCN(c2ccc(-c3nc4c(NC5CCN(C)CC5)c(Br)cnc4[nH]3)cc2)CC1 [Example 10, 6-Bromo-2-[4-(4-ethylpiperazin-1-yl)phenyl]-N-(1-methylpiperidin-4-yl)-3H-imidazo[4,5-b]pyridin-7-amine]	110 nM	> 20000 nM
COCCN1CCN(c2ccc(-c3nc4c(NC5CCN(Cc6ccc(OC)cc6)CC5)c(Cl)cnc4[nH]3)cc2)CC1 [Example 14, 6-Chloro-N-[1-(4-methoxybenzyl)piperidin-4-yl]-2-{4-[4-(2-methoxyethyl)piperazin-1-yl]phenyl}-3H-imidazo[4,5-b]pyridin-7-amine]	420 nM	15600 nM
CN1CCC(Nc2c(Br)cnc3[nH]c(-c4ccc(N5CCN(c6ccncc6)CC5)cc4)nc23)CC1 [Example 16, 6-Bromo-N-(1-methylpiperidin-4-yl)-2-[4-(4-pyridin-4-ylpiperazin-1-yl)phenyl]-3H-imidazo[4,5-b]pyridin-7-amine]	80 nM	17200 nM
CN1CCC(Nc2c(Cl)cnc3[nH]c(-c4ccc(N5CCCN(C)CC5)cc4)nc23)CC1 [Example 22, 6-Chloro-2-[4-(4-methyl-1,4-diazepan-1-yl)phenyl]-N-(1-methylpiperidin-4-yl)-3H-imidazo[4,5-b]pyridin-7-amine]	170 nM	18600 nM
CN1CCC(Nc2c(Cl)cnc3[nH]c(-c4ccc(N5CCOCC5)cc4)nc23)CC1 [Example 27, 6-Chloro-N-(1-methylpiperidin-4-yl)-2-(4-morpholin-4-ylphenyl)-3H-imidazo[4,5-b]pyridin-7-amine]	90 nM	17700 nM
COc1ccc(CN2CCC(Nc3c(Cl)cnc4[nH]c(-c5ccc(N6CCN(C(C)=O)CC6)cc5)nc34)CC2)cc1 [Example 35, 2-[4-(4-Acetylpiperazin-1-yl)phenyl]-6-chloro-N-[1-(4-methoxybenzyl)piperidin-4-yl]-3H-imidazo[4,5-b]pyridin-7-amine]	430 nM	> 20000 nM
CN1CCC(Nc2c(Cl)cnc3[nH]c(-c4ccc(N5CCNC(=O)C5)cc4)nc23)CC1 [Example 37, 4-(4-{6-Chloro-7-[(1-methylpiperidin-4-yl)amino]-3H-imidazo[4,5-b]pyridin-2-yl}phenyl)piperazin-2-one]	290 nM	> 20000 nM
COc1ccc(CN2CCC(Nc3c(Cl)cnc4[nH]c(-c5ccc(N6CCN(S(C)(=O)=O)CC6)cc5)nc34)CC2)cc1 [Example 44, 6-Chloro-N-[1-(4-methoxybenzyl)piperidin-4-yl]-2-{4-[4-(methylsulfonyl)piperazin-1-yl]phenyl}-3H-imidazo[4,5-b]pyridin-7-amine]	440 nM	> 20000 nM
CCN1CCC(Nc2c(Br)cnc3[nH]c(-c4ccc(N5CCNC(=O)CC5)cc4)nc23)CC1 [Example 53, 1-(4-{6-Bromo-7-[(1-ethylpiperidin-4-yl)amino]-3H-imidazo[4,5-b]pyridin-2-yl}phenyl)-1,4-diazepan-5-one]	480 nM	> 20000 nM
COCCN1CCCN(c2ccc(-c3nc4c(NC5CCN(C(C)C)CC5)c(Cl)cnc4[nH]3)cc2)CC1 [Example 63, 6-Chloro-2-{4-[4-(2-methoxyethyl)-1,4-diazepan-1-yl]phenyl}-N-[1-(1-methylethyl)piperidin-4-yl]-3H-imidazo[4,5-b]pyridin-7-amine]	960 nM	> 20000 nM
CCOCCN1CCN(c2ccc(-c3nc4c(NC5CCN(CC)CC5)c(Cl)cnc4[nH]3)cc2)CC1 [Example 70, 6-Chloro-2-{4-[4-(2-ethoxyethyl)piperazin-1-yl]phenyl}-N-(1-ethylpiperidin-4-yl)-3H-imidazo[4,5-b]pyridin-7-amine]	160 nM	> 20000 nM
Clc1cnc2[nH]c(-c3ccc(N4CCOCC4)cc3)nc2c1NC1CCN(Cc2cccs2)CC1 [Example 83, 6-Chloro-2-(4-morpholin-4-ylphenyl)-N-[1-(thiophen-2-ylmethyl)piperidin-4-yl]-3H-imidazo[4,5-b]pyridin-7-amine]	1000 nM	> 20000 nM
CC(C)OCCN1CCN(c2ccc(-c3nc4c(NC5CCN(Cc6ccc(N(C)C)cc6)CC5)c(Cl)cnc4[nH]3)cc2)CC1 [Example 90, 6-Chloro-N-{1-[4-(dimethylamino)benzyl]piperidin-4-yl}-2-(4-{4-[2-(1-methylethoxy)ethyl]piperazin-1-yl}phenyl)-3H-imidazo[4,5-b]pyridin-7-amine]	870 nM	> 20000 nM
CN1CCC(Nc2c(Cl)cnc3[nH]c(-c4ccc(N5CCN(Cc6ccccn6)CC5)cc4)nc23)CC1 [Example 98, 6-Chloro-N-(1-methylpiperidin-4-yl)-2-{4-[4-(pyridin-2-ylmethyl)piperazin-1-yl]phenyl}-3H-imidazo[4,5-b]pyridin-7-amine]	60 nM	> 20000 nM
COCCN1CCN(c2ccc(-c3nc4c(NC5CCN(Cc6ccc(O)c(OC)c6)CC5)c(Cl)cnc4[nH]3)cc2)CC1 [Example 103, 4-({4-[(6-Chloro-2-{4-[4-(2-methoxyethyl)piperazin-1-yl]phenyl}-3H-imidazo[4,5-b]pyridin-7-yl)amino]piperidin-1-yl}methyl)-2-methoxyphenol]	350 nM	> 20000 nM
CN1CCC(Nc2c(Br)cnc3[nH]c(-c4ccc(N5CCN(Cc6ccccn6)CC5)cc4)nc23)CC1 [Example 115, 6-Bromo-N-(1-methylpiperidin-4-yl)-2-{4-[4-(pyridin-2-ylmethyl)piperazin-1-yl]phenyl}-3H-imidazo[4,5-b]pyridin-7-amine]	40 nM	16200 nM
Cc1noc(C)c1CN1CCN(c2ccc(-c3nc4c(NC5CCN(C)CC5)c(Cl)cnc4[nH]3)cc2)CC1 [Example 119, 6-Chloro-2-(4-{4-[(3,5-dimethylisoxazol-4-yl)methyl]piperazin-1-yl}phenyl)-N-(1-methylpiperidin-4-yl)-3H-imidazo[4,5-b]pyridin-7-amine]	40 nM	17000 nM
CN1CC[C@H](Nc2c(Cl)cnc3[nH]c(-c4ccc(N5CCN(Cc6ccncc6)CC5)cc4)nc23)C1 [Example 126, 6-Chloro-N-[(3S)-1-methylpyrrolidin-3-yl]-2-{4-[4-(pyridin-4-ylmethyl)piperazin-1-yl]phenyl}-3H-imidazo[4,5-b]pyridin-7-amine]	130 nM	> 20000 nM
CCN1CCC(Nc2c(Cl)cnc3[nH]c(-c4ccc(N5CCN(Cc6cccc(C)n6)CC5)cc4)nc23)CC1 [Example 142, 6-Chloro-N-(1-ethylpiperidin-4-yl)-2-(4-{4-[(6-methylpyridin-2-yl)methyl]piperazin-1-yl}phenyl)-3H-imidazo[4,5-b]pyridin-7-amine]	240 nM	14800 nM
CC(C)N1CCC(Nc2c(Br)cnc3[nH]c(-c4ccc(N5CCN(Cc6ccncc6)CC5)cc4)nc23)CC1 [Example 151, 6-Bromo-N-[1-(1-methylethyl)piperidin-4-yl]-2-{4-[4-(pyridin-4-ylmethyl)piperazin-1-yl]phenyl}-3H-imidazo[4,5-b]pyridin-7-amine]	390 nM	13700 nM
CN1CC[C@H](Nc2c(Br)cnc3[nH]c(-c4ccc(N5CCN(Cc6cncnc6)CC5)cc4)nc23)C1 [Example 157, 6-Bromo-N-[(3S)-1-methylpyrrolidin-3-yl]-2-{4-[4-(pyrimidin-5-ylmethyl)piperazin-1-yl]phenyl}-3H-imidazo[4,5-b]pyridin-7-amine]	290 nM	> 20000 nM
CC(C)N1CCC(Nc2c(Cl)cnc3[nH]c(-c4ccc(N5CCN(Cc6cccnc6)CC5)cc4)nc23)CC1 [Example 168, 6-Chloro-N-[1-(1-methylethyl)piperidin-4-yl]-2-{4-[4-(pyridin-3-ylmethyl)piperazin-1-yl]phenyl}-3H-imidazo[4,5-b]pyridin-7-amine]	230 nM	17200 nM
CCN1CCC(Nc2c(Br)cnc3[nH]c(-c4ccc(N5CCN(Cc6cccnc6)CC5)cc4)nc23)CC1 [Example 174, 6-Bromo-N-(1-ethylpiperidin-4-yl)-2-{4-[4-(pyridin-3-ylmethyl)piperazin-1-yl]phenyl}-3H-imidazo[4,5-b]pyridin-7-amine]	10 nM	> 20000 nM
COCCN1CCN(c2ccc(-c3nc4c(NC5CCN(C)CC5)c(Cl)cnc4[nH]3)cc2)CC1=O [Example 230, 4-(4-{6-Chloro-7-[(1-methylpiperidin-4-yl)amino]-3H-imidazo[4,5-b]pyridin-2-yl}phenyl)-1-(2-methoxyethyl)piperazin-2-one]	70 nM	> 20000 nM
CCN1CCC(Nc2c(Br)cnc3[nH]c(-c4ccc(N5CCN(C(=O)COC)CC5)cc4)nc23)CC1 [Example 239, 6-Bromo-N-(1-ethylpiperidin-4-yl)-2-{4-[4-(methoxyacetyl)piperazin-1-yl]phenyl}-3H-imidazo[4,5-b]pyridin-7-amine]	100 nM	> 20000 nM
